These results are taken from patent publication US9868734B2, “Conjugate of benzofuranone and indole or azaindole, and preparation and uses thereof” (Luoda Biosciences, Inc., priority 2013, dated 2018).

Assay [1] has as its system human hepatocellular carcinoma cell line HepG-2. Description: MTT assay, inhibition of tumor cell growth (HepG2). Type of assay: cell-based. The conditions noted are these: 72 hours incubation, read-out: IC50 on the tumor cells HepG2. The method, then: (§1) human hepatocellular carcinoma cell line HepG-2, human lung adenocarcinoma epithelial cell line A549
(§2) Tumor cells were seeded in RPM11640 medium containing 10% calf serum, incubated at 37° C., 5% CO2 in CO2 incubator, and passaged every 2-3 days. Cells at logarithmic growth phase were used for this experiment.
(§3) The cells at logarithmic growth phase were formulated into suspension. The cell viability by trypan blue staining was more than 98%. The cell suspension was divided into several groups: 1 as blank control group (cell suspension plus solvent DMSO); and 2 as experimental groups (cell suspension plus compounds to be tested).
(§4) The drugs were formulated into a stock solution in DMSO, and the concentration of the stock solution was 20 mmol (used within 4 hours). In the experiment, the work solution of the drugs was diluted with RPMI1640 medium containing 10% calf serum under aseptic condition, to a final concentration of […]. The drug concentrations were increased by 2 times (1.25-20 μM).
(§5) The cells in logarithmic growth phase were selected, centrifuged, counted, and formulated into a cell suspension (2.5×10^4/ml) with RPMI1640 medium containing 10% calf serum. The cell suspension were inoculated into 96-well plates at a density of 5000 cells/200 μl per well, incubated for 24 hours at 37° C., 5% CO2. According to the above concentration of the drug, the cells were inoculated to 6 groups (including one control group), with 8 wells per group. After incubating for 72 hours, the viability of cells was measured by MTT assay. The absorbance value (A) was measured with detection wavelength at 540 nm, reference wavelength at 630 nm. The inhibitory rate (I) was calculated by the following equation, where T was the absorbance value of the experimental groups, and C was the absorbance value of the blank control group: I=(1−T/C)×100%
(§6) Equation of regression line was drawn from concentration-inhibitory rate curve, from which the IC50 of tested sample was calculated.
(Tetrazolium assays rely on reduction of a dye to a coloured formazan, in cell work by metabolically active cells.)

Assay [2] concerns human lung adenocarcinoma epithelial cell line A549. Description: MTT assay, inhibition of tumor cell growth (A549). Format: cell-based. The conditions noted are these: 72 hours incubation, read-out: IC50 on the tumor cells A549. The method, then:
as §1, §2, §3, §4, §5, §6

Like-named read-outs stand apart in the source and are kept apart here. Bounds are passed on as bounds.

Broadly, the IC50 is the concentration at which inhibition is half-maximal. In the case of `CC(C)N1C(=O)C(=C2Oc3ccccc3C2=NO)c2ccccc21` [Compound 32], the IC50 in assay [1] amounted to 12.8 ± 1.6 µM; in assay [2] it was 10.5 ± 1.3 µM.

With `O=C1C(=C2C(=O)N(Cc3ccccc3)c3ccccc32)Oc2ccccc21` [Compound 14, N1-benzyl-1′-oxo-indirubin], the figures for the IC50 in assay [1] and in assay [2] were 24 ± 1.5 µM and 7 ± 1.6 µM, respectively.

Consider `O=C1Nc2ccccc2C1=C1Oc2ccccc2C1=NO` [Compound 25], for which the IC50 in assay [1] worked out at 5 ± 0.9 µM; in assay [2] it was 3.7 ± 0.9 µM.

Consider `CCN1C(=O)/C(=C2\Nc3ccccc3\C2=N/O)c2ccccc21` [Compound 155, 1-ethyl-indirubin-3′-oxime, reference compound], for which the IC50 came out at 7 ± 1.3 µM in assay [1] (Homo sapiens) and 30.3 ± 1.5 µM in assay [2] (Homo sapiens).

On to `CCN1C(=O)C(=C2Oc3ccccc3C2=O)c2cc(F)ccc21` [Compound 18], for which the figures for the IC50 in assay [1] and in assay [2] were 17 ± 1.9 µM and 7.05 ± 1.1 µM, respectively.

In the case of `O=C1Nc2nc(Cl)ccc2C1=C1C(=O)Oc2ccccc21` [Compound 138], the IC50 stood at 25.8 ± 1.7 µM in assay [1] and 12.1 ± 1.4 µM in assay [2].

With `O=C1Nc2ccccc2C1=C1Oc2ccccc2C1=O` [Compound 1], the IC50 in assay [1] is more than 100 µM; in assay [2] it was 40 ± 1.4 µM.

For `CN1C(=O)C(=C2Oc3ccccc3C2=O)c2cnccc21` [Compound 62], the figures for the IC50 in assay [1] and in assay [2] were 11.5 ± 1 µM and 9.5 ± 2.1 µM, respectively.

As for `CCN1C(=O)C(=C2Oc3ccccc3C2=O)c2cccc(F)c21` [Compound 4], the IC50 came out at 31.5 ± 2.9 µM in assay [1] and 9.5 ± 2.1 µM in assay [2].

With `Cc1cccc2c1OC(=O)C2=C1C(=O)N(C)c2ncccc21` [Compound 140], the figures for the IC50 in assay [1] and in assay [2] were 7.3 ± 0.8 µM and 1.9 ± 0.8 µM, respectively.

For `CCN1C(=O)C(=C2Oc3c(Cl)cccc3C2=O)c2cccnc21` [Compound 79], the IC50 was found to be 31.5 ± 2.5 µM in assay [1] and 17.4 ± 1.7 µM in assay [2].

With `CON=C1C(=C2C(=O)N(Cc3ccccc3)c3ccc(F)cc32)Oc2ccccc21` [Compound 57], the IC50 in assay [1] is 3.1 ± 0.8 µM; in assay [2], 6.9 ± 0.8 µM.

As for `CCN1C(=O)C(=C2Oc3ccc(Cl)cc3C2=NO)c2cc(Cl)ccc21` [Compound 45], the IC50 worked out at 3.6 ± 0.2 µM in assay [1] and 4.8 ± 0.6 µM in assay [2].

Turning to `CCN1C(=O)C(=C2Oc3ccc(Cl)cc3C2=NO)c2cccc(F)c21` [Compound 44], the IC50 in assay [1] and in assay [2] was more than 100 µM each time.

For the compound `CCN1C(=O)C(=C2Oc3ccc(Cl)cc3C2=O)c2cc(Cl)ccc21` [Compound 21], the IC50 in assay [1] amounted to 12 ± 1.9 µM; in assay [2], 4 ± 2.4 µM.

Turning to `CCN1C(=O)C(=C2Oc3ccccc3C2=NOC)c2cccc(F)c21` [Compound 52], the IC50 in assay [1] amounted to 2.1 ± 0.2 µM; in assay [2] it was 2.8 ± 0.4 µM.

Consider `CC(C)N1C(=O)C(=C2Oc3ccccc3C2=O)c2cc(Cl)ccc21` [Compound 11], for which the results for the IC50 in assay [1] and in assay [2] were 45 ± 1.9 µM and 8.5 ± 1.6 µM, respectively.

Regarding `CC(C)N1C(=O)C(=C2C(=O)Oc3ccccc32)c2cnc(F)cc21` [Compound 130], the figures for the IC50 in assay [1] and in assay [2] were 19.6 ± 1.3 µM and 28.5 ± 1.6 µM, respectively.

Take `CC(C)N1C(=O)C(=C2Oc3ccc(Cl)cc3C2=NO)c2ccc(Cl)cc21` [Compound 48]: the IC50 in assay [1] stood at 2.6 ± 0.4 µM; in assay [2], 1.9 ± 0.4 µM.

`CON=C1C(=C2C(=O)N(C(C)C)c3cc(Cl)ccc32)Oc2ccccc21` [Compound 54]: the figures for the IC50 in assay [1] and in assay [2] were 1.8 ± 1.9 µM and 12 ± 1.4 µM, respectively.

Consider `O=C1C(=C2C(=O)N(Cc3ccccc3)c3ccc(Cl)cc32)Oc2ccccc21` [Compound 16], for which the IC50 was found to be 61 ± 2.9 µM in assay [1] and 16 ± 2 µM in assay [2].

For `CC(C)N1C(=O)C(=C2Oc3ccccc3C2=O)c2cc(Cl)cnc21` [Compound 82], the IC50 in assay [1] stood at 18 ± 2.3 µM; in assay [2], 16 ± 2 µM.

As to `CC(C)N1C(=O)C(=C2Oc3ccccc3C2=NO)c2ccc(Cl)cc21` [Compound 36], the values for the IC50 in assay [1] and in assay [2] were 31.5 ± 1.8 µM and 10 ± 0.6 µM, respectively.

As for `CCCCN1C(=O)C(=C2Oc3ccccc3C2=O)c2cncc(F)c21` [Compound 70], the IC50 in assay [1] stood at 3.6 ± 0.4 µM; in assay [2], 4.5 ± 0.6 µM.

For the compound `CON=C1C(=C2C(=O)N(Cc3ccccc3)c3ncccc32)Oc2ccccc21` [Compound 90], the IC50 in assay [1] was determined as 30.2 ± 1.5 µM; in assay [2] it was 29 ± 1.8 µM.

With `CON=C1C(=C2C(=O)N(Cc3ccccc3)c3ccncc32)Oc2ccccc21` [Compound 74], the results for the IC50 in assay [1] and in assay [2] were 19 ± 1.1 µM and 9.4 ± 0.6 µM, respectively.

With `CCN1C(=O)C(=C2Oc3ccccc3C2=NOC)c2ccccc21` [Compound 51], the IC50 in assay [1] came to 1.7 ± 0.6 µM; in assay [2], 3.9 ± 0.5 µM.

Regarding `O=C1Oc2ccccc2C1=C1C(=O)N(Cc2ccccc2)c2ccncc21` [Compound 134], the values for the IC50 in assay [1] and in assay [2] were 26 ± 2.1 µM and 11.5 ± 1.2 µM, respectively.

`CCN1C(=O)C(=C2Oc3ccccc3C2=O)c2cc(Cl)ccc21` [Compound 5]: the IC50 in assay [1] turned out to be 87 ± 2.1 µM; in assay [2], 11.5 ± 1 µM.

As for `CCN1C(=O)C(=C2Oc3ccccc3C2=NO)c2ccccc21` [Compound 27], the figures for the IC50 in assay [1] and in assay [2] were 19 ± 1.1 µM and 7.1 ± 0.7 µM, respectively.

`O=C1Nc2c(F)cccc2C1=C1Oc2ccccc2C1=O` [Compound 2]: in assay [2], the IC50 is more than 100 µM.

For `CC(C)N1C(=O)C(=C2Oc3ccc(Cl)cc3C2=O)c2cc(Cl)ccc21` [Compound 23], the IC50 was 6.9 ± 0.8 µM in assay [1] and 3.1 ± 0.8 µM in assay [2].

As to `CON=C1C(=C2C(=O)N(Cc3ccccc3)c3ccc(Cl)cc32)Oc2ccccc21` [Compound 58], the IC50 was 3.8 ± 1.5 µM in assay [1] and 12.1 ± 0.9 µM in assay [2].

Take `CCN1C(=O)C(=C2Oc3ccccc3C2=O)c2cc(C)ccc21` [Compound 7]: the IC50 in assay [1] was 19 ± 1.6 µM; in assay [2], 8 ± 1.2 µM.

As to `CC(C)N1C(=O)C(=C2Oc3ccccc3C2=O)c2cccc(F)c21` [Compound 10], the IC50 is 28.5 ± 1.3 µM in assay [1] and 8.1 ± 0.6 µM in assay [2].

As to `O=C1Nc2ccncc2C1=C1C(=O)Oc2ccccc21` [Compound 121], the figures for the IC50 in assay [1] and in assay [2] were 15.6 ± 1.2 µM and 11.6 ± 1.1 µM, respectively.

Turning to `O=C1Oc2ccccc2C1=C1C(=O)N(Cc2ccccc2)c2ccc(Cl)cc21` [Compound 119], the IC50 came to 27.5 ± 1.3 µM in assay [1] and 39.6 ± 1.7 µM in assay [2].

As for `CCN1C(=O)/C(=C2\Nc3ccccc3C2=O)c2ccccc21` [Compound 154, 1-ethyl-indirubin, reference compound], the IC50 in assay [1] (Homo sapiens) was 7.1 ± 0.7 µM; in assay [2] (Homo sapiens), 19 ± 1.1 µM.

As for `CC(C)N1C(=O)C(=C2Oc3ccccc3C2=O)c2cnccc21` [Compound 66], the results for the IC50 in assay [1] and in assay [2] were 1.8 ± 0.6 µM and 7.4 ± 1.7 µM, respectively.

Consider `CC(C)N1C(=O)C(=C2Oc3ccccc3C2=NO)c2cc(Cl)ccc21` [Compound 35], for which the IC50 in assay [1] came to 29.2 ± 1.4 µM; in assay [2], 17.5 ± 1.8 µM.

Regarding `CCN1C(=O)C(=C2Oc3ccc(Cl)cc3C2=O)c2ccc(Cl)cc21` [Compound 22], the IC50 was 7.1 ± 1.1 µM in assay [1] and 2.7 ± 1.2 µM in assay [2].

As for `CC(C)N1C(=O)C(=C2C(=O)Oc3ccc(F)cc32)c2cccnc21` [Compound 150], the IC50 in assay [1] is 5.6 ± 0.6 µM; in assay [2] it was 7.9 ± 1.3 µM.

Consider `CC(C)N1C(=O)C(=C2Oc3ccccc3C2=NO)c2cccc(F)c21` [Compound 34], for which the values for the IC50 in assay [1] and in assay [2] were 51.1 ± 2.6 µM and 14.1 ± 1.5 µM, respectively.

As to `CC(C)N1C(=O)C(=C2Oc3ccccc3C2=O)c2ccc(Cl)cc21` [Compound 12], the IC50 in assay [1] amounted to 26 ± 2.7 µM; in assay [2], 14 ± 1.7 µM.

For `COc1ccc2c(c1)C(=C1C(=O)N(Cc3ccccc3)c3ccccc31)C(=O)O2` [Compound 116], the IC50 in assay [1] is 7.4 ± 1.7 µM; in assay [2], 3.7 ± 0.6 µM.

Take `CC(C)N1C(=O)C(=C2Oc3ccc(Cl)cc3C2=O)c2ccc(Cl)cc21` [Compound 24]: the IC50 in assay [1] amounted to 12.1 ± 0.9 µM; in assay [2], 3.8 ± 1.5 µM.

As to `CON=C1C(=C2C(=O)N(C3OC(CO)C(O)C(O)C3O)c3ccc(Cl)cc32)Oc2ccccc21` (stereo not drawn) [Compound 53], the IC50 in assay [1] was 16 ± 1.5 µM; in assay [2] it was 2.1 ± 0.5 µM.

With `CON=C1C(=C2C(=O)N(Cc3ccccc3)c3ccccc32)Oc2ccccc21` [Compound 56, N1-benzyl-1′-oxo-indirubin-3′-oxime ether], the IC50 in assay [1] was 2.7 ± 1.2 µM; in assay [2] it was 7.1 ± 1.1 µM.

Take `Cc1nccc2c1C(=C1Oc3ccccc3C1=O)C(=O)N2C(C)C` [Compound 68]: the values for the IC50 in assay [1] and in assay [2] were 18.5 ± 1.8 µM and 14 ± 1.7 µM, respectively.

Turning to `Cc1ccc2c(c1)C(=C1Oc3ccccc3C1=NO)C(=O)N2C(C)C` [Compound 37], the IC50 was determined as 41 ± 1.7 µM in assay [1] and 9 ± 2.1 µM in assay [2].

As to `O=C1C(=C2Oc3ccccc3C2=NO)c2ccccc2N1Cc1ccccc1` [Compound 38, N1-benzyl-1′-oxo-indirubin-3′-oxime], the figures for the IC50 in assay [1] and in assay [2] were 32.2 ± 1.5 µM and 9.05 ± 1.4 µM, respectively.

For the compound `CCN1C(=O)C(=C2Oc3ccccc3C2=O)c2ccc(Cl)cc21` [Compound 6], the IC50 is 60 ± 1.7 µM in assay [1] and 11.9 ± 1.4 µM in assay [2].

Regarding `CCN1C(=O)C(=C2Oc3ccccc3C2=NO)c2ccc(Cl)cc21` [Compound 30], the IC50 in assay [1] was 3 ± 0.5 µM; in assay [2], 3.8 ± 0.5 µM.
